# Legend:
# breast tumor xenograft = assay: Breast tumor xenograft model in rats, MPG disulfide with or without cisplatin; assay type: in vivo
# Protocol: (§1) The efficacy of MPG disulfide in improving the response to cisplatin in the breast tumor xenograft model in rats was tested. MPG disulfide was tested against two different tumor sizes. These different tumor sizes were achieved by growing the tumor in rats for up to 6 days (small tumor, FIG. 13) or 12 days (large tumor, FIGS. 14 and 15). MPG disulfide was determined to be non-toxic to the animals.
# (§2) The response of tumors to MPG disulfide was determined in rats with either small tumors (approximately 139 mm^3) or large tumors (approximately 2837 mm^3). MPG disulfide in physiological saline was administered at 40 mg/Kg/day via IP injections. The control animals were treated with saline. This treatment was continued for three consecutive days. […] Each group (control or MPG disulfide) consists of at least three animals. Each data point is mean of at least three animals with standard error as shown unless smaller than points plotted.
# (§3) The improved response of large tumors to cisplatin by MPG disulfide was determined in rats with tumors of approximately 2837 mm^3 in tumor volume. MPG disulfide in physiological saline was administered at 40 mg/kg/day via IP injections. At one hour after MPG disulfide administration, cisplatin (2 mg/kg) was administered to these rats by IP. MPG treatment alone without cisplatin was continued for two more days in these animals. […] Each group (cisplatin or MPG disulfide with cisplatin) consists of at least three animals. Each data point is mean of at least three animals with standard error as shown unless smaller than points plotted.
# [1] = Tolerability in tumor-bearing rats; assay type: in vivo
# Protocol: as §1, §2, §3
# [2] = tested on: radiation sensitive human colon cancer cells HCT116; assay: Clonogenic (colony) assay, HEDS alone; assay type: cell-based
# Protocol: In FIG. […] The cells were washed and replenished with fresh growth medium. Colony assays were carried out by plating cells at concentration that gives no more than 200 colonies. Each experiment was repeated at least three times with errors as shown unless smaller than points plotted.
# [3] = tested on: radiation resistant human colon cancer cells HT29; assay: Clonogenic (colony) assay, HEDS alone; assay type: cell-based
# Protocol: (§4) For FIG. 3, radiation resistant human colon cancer cells HT29 were deprived of glucose for 4 hours and then treated with various concentrations of HEDS for 3 hours. The cells were washed and replenished with fresh growth medium. For FIG. 4, HT29 cells were deprived of glucose for 4 hours, treated with various concentrations of HEDS, and then treated for 1 hour before 4 Gy irradiation. Two hours after irradiation, the cells were washed and replenished with fresh growth medium. Colony assays were carried out by plating cells at concentration that gives no more than 200 colonies. Each experiment was repeated at least three times with errors as shown unless smaller than points plotted. […]
# HCT116 cells = assay: Colony assay, HEDS plus 4 Gy irradiation; assay type: cell-based, human; conditions: HCT116, absence of glucose, HEDS 1 hour before 4 Gy irradiation
# Protocol: For FIG. 2, HCT116 cells were deprived of glucose for 4 hours, treated with various concentrations of HEDS for 1 hour, and then exposed to 4 Gy irradiation. Two hours after irradiation, the cells were washed and replenished with fresh growth medium. The colony assay was then performed as described above for FIG. 1.
# HT29 cells = assay: Colony assay, HEDS plus 4 Gy irradiation; assay type: cell-based, human; conditions: HT29, absence of glucose, HEDS 1 hour before 4 Gy irradiation
# Protocol: as §4
# [4] = tested on: human colon cancer cells HCT116; assay: Depletion of intracellular thiols (Ellman's reagent); assay type: cell-based; conditions: HEDS 3 hours
# Protocol: (§5) The depletion of intracellular thiols by HEDS in human colon cancer cells HCT116 and HT29 was determined by first depriving the cells of glucose for 4 hours. After three hours of HEDS treatment, the attached cells were washed with cell rinse and lysed with 1 ml of sulphosalicyclic acid (SSA) lysis buffer. The samples were then centrifuged at high speed in a Fisher 59A microfuge and the supernatant was used for quantification of intracellular thiols using Ellman's reagent. Each experiment was repeated at least three times with errors as shown unless smaller than points plotted.
# For the estimation of intracellular thiols in HCT116 cells, the cells were incubated with different concentrations of glucose for 4 hours. For FIG. 12, the cells were then treated with HEDS for 3 hours. After treatment, the attached cells were washed with cell rinse and lysed with 1 ml of sulphosalicyclic acid (SSA) lysis buffer. The samples were centrifuged at high speed in a Fisher 59A microfuge and the supernatant was used for quantification of intracellular thiols using Ellman's reagent. Each experiment was repeated at least three times with errors as shown unless smaller than points plotted.
# [5] = tested on: human colon cancer cells HT29; assay: as above; assay type: cell-based; conditions: HEDS 3 hours
# Protocol: as §5, with “The depletion of intracellular thiols by HEDS in human colon cancer cells HCT116 and HT29 was determined by first depriving the cells of glucose for 4 hours.” left out
# breast tumor xenografts = assay: Response of tumor xenografts in rats to etoposide with HEDS; assay type: in vivo; conditions: HEDS 10 mg/kg/day IP one hour before etoposide 12 mg/Kg/day IP, three consecutive days, tumor about 8×8 mm
# Protocol: The use of HEDS, an oxidant/disulfide, to increase the response of tumor xenografts to topoisomerase II inhibitor, etoposide, was also investigated. […] The effect of HEDS (0 and 10 mg/kg/day) on the response of tumor to etoposide (12 mg/Kg/day) was determined in rats with tumor of approximately 8×8 mm in size. HEDS in physiological saline was administered at 0 and 10 mg/kg via IP injections. At one hour after HEDS administration, etoposide was administered to these rats by IP. This treatment was continued for three consecutive days. Tumor growth was measured twice a week for up to two weeks.
# [6] = tested on: breast cancer cell line (MCF7); assay: Radiation response (survival after 4Gy γ irradiation) with HEDS; assay type: cell-based, human; conditions: MCF7, absence of glucose
# Text: (§6) FIGS. 17 and 18 show the impact of HEDS on the radiation response of a breast cancer cell line (MCF7) and a prostate cancer cell line (DU145) in the presence and absence of glucose.
# [7] = tested on: prostate cancer cell line (DU145); assay: as above; assay type: cell-based, human; conditions: DU145, absence of glucose
# Text: as §6
smiles,measurement,setting,value
"N.N.[Cl][Pt][Cl] [Cisplatin, cis-diamine-dichloroplatinum (II), reference compound]",tumor volume on day 13 after the treatment,"breast tumor xenograft; large tumors, cisplatin alone 2 mg/kg IP",4355±577 mm^3
same,tumor volume at start of treatment,"breast tumor xenograft; large tumors, cisplatin alone group, baseline",2948±180 mm^3
"CC(SSC(C)C(=O)NCC(=O)O)C(=O)NCC(=O)O (stereo not drawn) [MPG disulfide, disulfide of mercaptopropionylglycine (MPG) (glycinepropionyldisulfide)]",effect on tumors,"breast tumor xenograft; MPG disulfide in combination with cisplatin, even large tumors",completely eliminated tumors
same,tumor volume on day 13 after the start of the treatment,"breast tumor xenograft; large tumors, MPG disulfide 40 mg/kg/day IP (3 days) in combination with cisplatin 2 mg/kg IP",112±47 mm^3
same,increase in tumor size,"breast tumor xenograft; large tumors, MPG disulfide alone 40 mg/Kg/day IP, day 5 after the treatment",3 fold
same,tumor volume at start of treatment,"breast tumor xenograft; large tumors, MPG disulfide alone group, baseline",2848±538 mm^3
same,tumor smaller than the untreated animals,"breast tumor xenograft; large tumors, MPG disulfide alone, day 5 after the treatment",2.5 fold
same,maximum tumor size,"breast tumor xenograft; large tumors, MPG disulfide alone, day 8","18,038±1289 mm^3"
same,tumor smaller compared to cisplatin group,"breast tumor xenograft; large tumors, MPG disulfide in combination with cisplatin, day 13",38 fold
same,tumor volume at start of treatment,"breast tumor xenograft; large tumors, cisplatin and MPG disulfide combination group, baseline",2402±218 mm^3
same,tumor volume on day 13,"breast tumor xenograft; small tumors, MPG disulfide alone 40 mg/Kg/day IP, three consecutive days",126±119 mm^3
same,growth of small size tumors,"breast tumor xenograft; small tumors, MPG disulfide alone 40 mg/Kg/day IP, to day 13",completely inhibited the growth
same,tumor volume on the day of treatment,"breast tumor xenograft; small tumors, MPG disulfide alone group, baseline",139±4.29 mm^3
same,observable side effects,"[1]; MPG disulfide 40 mg/Kg/day IP, three consecutive days",did not cause any observable side effects
same,observable side effects,"[1]; MPG disulfide 40 mg/kg/day IP with cisplatin 2 mg/kg IP, MPG continued two more days",did not cause any observable side effects
same,toxicity to the animals,[1]; rats with breast tumor xenograft,non-toxic
"OCCSSCCO [HEDS, hydroxyethyldisulfide]",cytotoxic effect (clonogenic survival),"[2]; HCT116, HEDS alone 3 hours, presence of glucose",little/no cytotoxic effects
same,decrease in survival,"[2]; HCT116, absence of glucose (deprived 4 hours), higher concentration of HEDS alone, 3 hours",75%
same,cytotoxic effect (clonogenic survival),"[3]; HT29, HEDS alone 3 hours, presence of glucose",little/no cytotoxic effects
same,effect on survival,"[3]; HT29, absence of glucose (deprived 4 hours), higher concentration of HEDS alone",no significant effect
same,sensitization to radiation,HCT116 cells,sensitization
same,sensitization to radiation,HT29 cells,sensitization
same,intracellular thiols,"[4]; HCT116, glucose deprived 4 hours",≥ 40 % of the control
same,intracellular thiols,"[4]; HCT116, low concentrations (1-3 mM) of glucose",intracellular thiol depletion
same,intracellular thiols,"[4]; HCT116, with glucose",maintaining the intracellular thiols
same,intracellular thiols,"[5]; HT29, glucose deprived 4 hours",≥ 40 % of the control
same,intracellular thiols,"[5]; HT29, with glucose",maintaining the intracellular thiols
same,better tumor response with HEDS and etoposide compared to etoposide alone,breast tumor xenografts,at least 50%
same,radiation response,[6],significantly increased
same,radiation response,[7],significantly increased

# Source: US9522164B2, “Disulfide chemotherapeutic agents and methods of use thereof” (Lankenau Institute for Medical Research, priority 2007, dated 2016)
